Patent US8101766B2, “Crystalline form of a biphenyl compound” (Theravance, Inc., priority 2004, dated 2012)

What was measured:
[1] = molecular target: T1, hM2 receptor (Homo sapiens, UniProt P08172); test: Blockade of oxotremorine-stimulated [35S]GTPγS binding in CHO-K1 cells expressing the hM2 receptor; type: biochemical
T1 construct: expressed in transfected cells
T1 sequence (P08172 1-466): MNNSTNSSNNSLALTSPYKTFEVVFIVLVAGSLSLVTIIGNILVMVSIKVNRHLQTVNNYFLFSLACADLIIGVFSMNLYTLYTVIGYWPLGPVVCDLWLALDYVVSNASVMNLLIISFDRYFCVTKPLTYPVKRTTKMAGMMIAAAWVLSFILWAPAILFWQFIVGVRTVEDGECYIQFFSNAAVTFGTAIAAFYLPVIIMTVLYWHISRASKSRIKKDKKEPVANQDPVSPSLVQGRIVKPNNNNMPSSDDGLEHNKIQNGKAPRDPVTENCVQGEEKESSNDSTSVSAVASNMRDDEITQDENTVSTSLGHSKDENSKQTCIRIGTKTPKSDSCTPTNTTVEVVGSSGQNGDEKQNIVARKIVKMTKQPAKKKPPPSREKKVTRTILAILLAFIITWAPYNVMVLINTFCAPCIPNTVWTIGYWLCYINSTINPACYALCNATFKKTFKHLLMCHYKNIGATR
Protocol: A. Blockade of Agonist-Mediated [^35S]GTPγS Binding
The functional potency of a test compound was determined by measuring the ability of the compound to block oxotremorine-stimulated [^35S]GTPγS binding in CHO-K1 cells expressing the hM2 receptor.
At the time of use, frozen membranes were thawed and then diluted in assay buffer with a final target tissue concentration of 5-10 μg protein per well. The membranes were briefly homogenized using a Polytron PT-2100 tissue disrupter and then added to the assay plates.
The assay plates were then incubated at 37° C. for 60 minutes. The assay plates were filtered over 1% BSA-pretreated GF/B filters using a PerkinElmer 96-well harvester. The plates were rinsed with ice-cold wash buffer for 3×3 seconds and then air or vacuum dried. Microscint-20 scintillation liquid (50 μL) was added to each well, and each plate was sealed and radioactivity counted on a Topcounter (PerkinElmer). Data were analyzed by nonlinear regression analysis with the GraphPad Prism Software package (GraphPad Software, Inc., San Diego, Calif.) using the non-linear regression, one-site competition equation. The Cheng-Prusoff equation was used to calculate the Ki, using the IC50 values of the concentration-response curve for the test compound and the oxotremorine concentration in the assay as the KD and [L], ligand concentration, respectively.

[2] = molecular target: T2, hM1 receptor (Homo sapiens, UniProt P11229); test: Blockade of agonist-mediated calcium release via FLIPR assay (hM1); type: cell-based; conditions: CHO cells stably expressing hM1
T2 construct: expressed in transfected cells
T2 sequence (P11229 1-460): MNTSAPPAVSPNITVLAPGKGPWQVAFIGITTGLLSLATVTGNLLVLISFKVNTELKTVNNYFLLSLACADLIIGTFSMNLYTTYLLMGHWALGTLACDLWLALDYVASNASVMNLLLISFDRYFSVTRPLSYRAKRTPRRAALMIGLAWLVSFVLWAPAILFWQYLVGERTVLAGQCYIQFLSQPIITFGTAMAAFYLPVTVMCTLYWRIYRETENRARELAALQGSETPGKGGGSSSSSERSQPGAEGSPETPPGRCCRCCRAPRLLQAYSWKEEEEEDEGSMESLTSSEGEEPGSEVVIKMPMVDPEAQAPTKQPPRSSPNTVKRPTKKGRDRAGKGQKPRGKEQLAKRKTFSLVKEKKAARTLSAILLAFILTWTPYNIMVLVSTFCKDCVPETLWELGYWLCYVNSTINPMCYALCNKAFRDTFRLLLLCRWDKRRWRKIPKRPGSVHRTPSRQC
Excerpt: (§1) B. Blockade of Agonist-Mediated Calcium Release Via FLIPR Assays
(§2) Muscarinic receptor subtypes (M1, M3 and M5 receptors), which couple to Gq proteins, activate the phospholipase C (PLC) pathway upon agonist binding to the receptor. As a result, activated PLC hydrolyzes phosphatyl inositol diphosphate (PIP2) to diacylglycerol (DAG) and phosphatidyl-1,4,5-triphosphate (IP3), which in turn generates calcium release from intracellular stores, i.e., endoplasmic and sarcoplasmic reticulum. […] This fluorescence event is measured in real time by the FLIPR, which detects the change in fluorescence from a monolayer of cells cloned with human M1 and M3, and chimpanzee M5 receptors. Antagonist potency can be determined by the ability of antagonists to inhibit agonist-mediated increases in intracellular calcium. […]
(§3) To determine antagonist potency, the dose-dependent stimulation of intracellular Ca^2+ release for oxotremorine was first determined so that antagonist potency can later be measured against oxotremorine stimulation at an EC90 concentration. […]
(§4) The parameters used for the FLIPR were: exposure length of 0.4 seconds, laser strength of 0.5 watts, excitation wavelength of 488 nm, and emission wavelength of 550 nm. Baseline was determined by measuring the change in fluorescence for 10 seconds prior to addition of agonist. […]

[3] = molecular target: T3, hM3 receptor (Homo sapiens, UniProt P20309); test: Blockade of agonist-mediated calcium release via FLIPR assay (hM3); type: cell-based; conditions: CHO cells stably expressing hM3
T3 construct: expressed in transfected cells
Excerpt: as §1, §2, §3, §4

[4] = molecular target: β2 adrenergic receptor (Homo sapiens, UniProt P07550); test: Radioligand binding assay for human β2 adrenergic receptor; parameters: expressed in transfected cells; conditions: radioligand displacement, CHO cell membranes
Protocol: The cell monolayer was lifted with 2 mM EDTA in PBS. […] All membranes were stored frozen in aliquots at −80° C. or used immediately.

Measured: Ki

T3 sequence (P20309 whole entry): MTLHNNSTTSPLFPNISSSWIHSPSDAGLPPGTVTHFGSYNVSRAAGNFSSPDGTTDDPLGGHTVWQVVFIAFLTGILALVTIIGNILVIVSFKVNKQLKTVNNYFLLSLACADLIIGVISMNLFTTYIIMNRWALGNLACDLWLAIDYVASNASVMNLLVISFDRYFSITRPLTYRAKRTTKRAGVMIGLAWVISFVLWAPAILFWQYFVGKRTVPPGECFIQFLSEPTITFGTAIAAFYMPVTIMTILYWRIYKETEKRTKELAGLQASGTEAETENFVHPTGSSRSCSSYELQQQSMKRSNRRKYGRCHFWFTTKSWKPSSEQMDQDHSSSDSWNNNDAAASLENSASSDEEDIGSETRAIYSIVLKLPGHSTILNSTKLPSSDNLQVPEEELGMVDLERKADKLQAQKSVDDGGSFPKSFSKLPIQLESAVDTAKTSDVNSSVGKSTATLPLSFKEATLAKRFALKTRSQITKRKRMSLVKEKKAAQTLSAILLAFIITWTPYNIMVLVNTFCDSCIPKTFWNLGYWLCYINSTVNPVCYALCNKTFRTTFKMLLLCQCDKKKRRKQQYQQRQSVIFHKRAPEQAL
β2 adrenergic receptor, sequence (P07550 whole entry): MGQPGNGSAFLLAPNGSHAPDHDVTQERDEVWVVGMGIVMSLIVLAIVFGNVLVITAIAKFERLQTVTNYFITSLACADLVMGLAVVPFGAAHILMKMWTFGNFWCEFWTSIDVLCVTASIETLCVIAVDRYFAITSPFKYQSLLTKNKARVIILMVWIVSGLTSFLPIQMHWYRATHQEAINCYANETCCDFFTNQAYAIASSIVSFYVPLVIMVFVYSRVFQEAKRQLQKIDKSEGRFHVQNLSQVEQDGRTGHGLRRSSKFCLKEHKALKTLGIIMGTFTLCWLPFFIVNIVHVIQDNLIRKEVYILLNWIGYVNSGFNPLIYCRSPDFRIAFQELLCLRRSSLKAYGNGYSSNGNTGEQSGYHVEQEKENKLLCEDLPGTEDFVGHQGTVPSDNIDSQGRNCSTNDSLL

COc1cc(NC(=O)CCN2CCC(OC(=O)Nc3ccccc3-c3ccccc3)CC2)c(Cl)cc1CNC[C@H](O)c1ccc(O)c2[nH]c(=O)ccc12 [compound of formula I, biphenyl-2-ylcarbamic acid 1-[2-(2-chloro-4-{[(R)-2-hydroxy-2-(8-hydroxy-2-oxo-1,2-dihydroquinolin-5-yl)ethylamino]methyl}-5-methoxyphenylcarbamoyl)ethyl]piperidin-4-yl ester]
< 10 nM: all assays above
